# Laboratory results from paper PMC9508196 (Scientific Reports, 2022).
# Like-named read-outs stand apart in the source and are kept apart here.
# How the values were obtained:
# [1] = tested on: A. baumannii A-8.2–1 (XDR); assay: microbe, parasite or virus in culture; assay type: cell-based, Acinetobacter baumannii
# Text: (§1) Ten strains of both Gram-positive and -negative bacteria, including Staphylococcus aureus ATCC 25,923, S. epidermidis ATCC 12,228, Bacillus cereus ATCC 11,778, Listeria monocytogenes 10403S, Salmonella typhimurium ATCC 13,311, Pseudomonas aeruginosa ATCC 27,853, Shigella sonnei ATCC 11,060, A. baumannii ATCC 19,606, Escherichia coli ATCC 25,922 and E. coli O157:H7, were used in this study. Eight clinical isolates of multidrug-resistant (MDR) and extensively drug-resistant (XDR) A. baumannii, isolated from human (blood, sputum, respiratory sample, sterile site sample and urine), were kindly provided by Asst. Prof. Dr. Sakawrat Kanthawong (Faculty of Medicine, Khon Kaen University, Thailand) (Table S1). All bacterial strains, excluding L. monocytogenes 10403S and E. coli, were cultured in tryptic soy broth (TSB). L. monocytogenes was grown in TSB supplemented with 0.6% yeast extract (TSB-YE), and E. coli was cultured in Luria broth (LB). All of bacteria were cultured at 37 °C with continuous shaking at 220 rpm.
# (§2) Minimum inhibitory concentration (MIC) of peptides and antibiotics was assessed by a modified version of the broth microdilution method from the Clinical and Laboratory Standards Institute (CLSI) as previously described. In brief, mid-log phase growths of microbial strains were cultured in Müeller-Hinton broth (MHB) with an initial inoculum of 2–8 × 10^5 CFU/mL. Bacteria suspensions were incubated in sterile 96-well plates with test agents at desired concentrations. […] Minimum bactericidal concentration (MBC) determination was performed using a modified version of the colony count assay. In brief, fifty µl of all non-turbid wells from MIC experiments were spread on agar plates. The MBC value was defined as the lowest concentration of peptides with no colony growth on the plate. All assays were performed in triplicate.
# [2] = tested on: A. baumannii ATCC 19,606; assay: microbe, parasite or virus in culture; assay type: cell-based, Acinetobacter baumannii
# Text: as §1, §2
# [3] = tested on: A. baumannii B-8.1–1 (MDR); assay: microbe, parasite or virus in culture; assay type: cell-based, Acinetobacter baumannii
# Text: as §1, §2
# [4] = tested on: A. baumannii B-8.1–2 (MDR); assay: microbe, parasite or virus in culture; assay type: cell-based, Acinetobacter baumannii
# Text: as §1, §2
# [5] = tested on: A. baumannii B-8.2–2 (XDR); assay: microbe, parasite or virus in culture; assay type: cell-based, Acinetobacter baumannii
# Text: as §1, §2
# [6] = tested on: A. baumannii C-8.1–2 (MDR); assay: microbe, parasite or virus in culture; assay type: cell-based, Acinetobacter baumannii
# Text: as §1, §2
# [7] = tested on: A. baumannii C-8.2–1 (XDR); assay: microbe, parasite or virus in culture; assay type: cell-based, Acinetobacter baumannii
# Text: as §1, §2
# [8] = tested on: A. baumannii D-10.1–1 (MDR); assay type: cell-based, Acinetobacter baumannii; conditions: clinical isolate D-10.1–1 (MDR), urine
# Text: as §1, §2
# [9] = tested on: A. baumannii D-10.1–2 (MDR); assay type: cell-based, Acinetobacter baumannii; conditions: clinical isolate D-10.1–2 (MDR), urine
# Text: as §1, §2
# [10] = tested on: A. baumannii isolate A-8.2-1; assay: Disk diffusion test (CLSI), antibiotic susceptibility profile; assay type: cell-based, Acinetobacter baumannii; conditions: CLSI breakpoints
# Procedure: (§3) ^aAntibiotic susceptibility profile of all isolated strains was evaluated by disk diffusion test, using the standard protocol guide of the Clinical and Laboratory Standards Institute (CLSI), and interpreted as S: Susceptible to standard dosing regimen; I: Intermediate; R: Resistant (in accordance with the criteria of CLST breakpoints).
# [11] = tested on: A. baumannii isolate B-8.1-1; assay: as above; assay type: cell-based, Acinetobacter baumannii; conditions: CLSI breakpoints
# Procedure: as §3
# [12] = tested on: A. baumannii isolate B-8.1-2; assay: as above; assay type: cell-based, Acinetobacter baumannii; conditions: CLSI breakpoints
# Procedure: as §3
# [13] = tested on: A. baumannii isolate B-8.2-2; assay: as above; assay type: cell-based, Acinetobacter baumannii; conditions: CLSI breakpoints
# Procedure: as §3
# [14] = tested on: A. baumannii isolate C-8.1-2; assay: as above; assay type: cell-based, Acinetobacter baumannii; conditions: CLSI breakpoints
# Procedure: as §3
# [15] = tested on: A. baumannii isolate C-8.2-1; assay: as above; assay type: cell-based, Acinetobacter baumannii; conditions: CLSI breakpoints
# Procedure: as §3
# [16] = tested on: A. baumannii isolate D-10.1-1; assay: as above; assay type: cell-based, Acinetobacter baumannii; conditions: CLSI breakpoints
# Procedure: as §3
# [17] = tested on: A. baumannii isolate D-10.1-2; assay: as above; assay type: cell-based, Acinetobacter baumannii; conditions: CLSI breakpoints
# Procedure: as §3
# [18] = tested on: A. baumannii ATCC 19,606; assay: microbe, parasite or virus in culture; conditions: for fold increase of MIC: serial passages at half-MIC
# Procedure: A. baumannii ATCC 19,606 was adjusted to approximately 10^6 CFU/ml in MHB. […] After 24 h incubation, bacterial suspensions of the wells at half-MIC concentration of tested agent were taken and washed 2 times with MHB to prepare the next initial-passage of bacteria. Twenty repeat passages were performed for each tested compound. Along with the test, a negative control was included: the MIC value of bacteria cultured in MHB-deionized water after 20 passages.
# [19] = clinical isolate A-8.2–1 (XDR), blood
# [20] = clinical isolate B-8.1–1 (MDR), respiratory tract
# [21] = clinical isolate B-8.1–2 (MDR), respiratory tract
# [22] = clinical isolate B-8.2–2 (XDR), respiratory tract
# [23] = clinical isolate C-8.1–2 (MDR), sterile site
# [24] = clinical isolate C-8.2–1 (XDR), sterile site
compound,measurement,setting,value
Colistin,MBC,[1]; [19],1.95(1.95) µg/ml
same,MIC,[1]; [19],1.95(1.95) µg/ml
same,MIC,"[2]; A. baumannii ATCC 19,606, broth microdilution (modified CLSI), MHB, 2–8 × 10^5 CFU/mL, 24 h, 37 °C, triplicate",0.98(0.98) µg/ml
same,MBC,"[2]; A. baumannii ATCC 19,606, colony count from non-turbid MIC wells, triplicate",0.98(0.98) µg/ml
same,MBC,[3]; [20],1.95(1.95) µg/ml
same,MIC,[3]; [20],1.95(1.95) µg/ml
same,MBC,[4]; [21],0.98(0.98) µg/ml
same,MIC,[4]; [21],0.98(0.98) µg/ml
same,MBC,[5]; [22],1.95(1.95) µg/ml
same,MIC,[5]; [22],1.95(1.95) µg/ml
same,MBC,[6]; [23],1.95(1.95) µg/ml
same,MIC,[6]; [23],1.95(1.95) µg/ml
same,MBC,[7]; [24],0.98(0.98) µg/ml
same,MIC,[7]; [24],0.98(0.98) µg/ml
same,MBC,[8],0.98(0.98) µg/ml
same,MIC,[8],0.98(0.98) µg/ml
same,MBC,[9],1.95(1.95) µg/ml
same,MIC,[9],1.95(1.95) µg/ml
same,Antibiotic susceptibility profile,[10],S
same,Antibiotic susceptibility profile,[11],S
same,Antibiotic susceptibility profile,[12],S
same,Antibiotic susceptibility profile,[13],S
same,Antibiotic susceptibility profile,[14],S
same,Antibiotic susceptibility profile,[15],S
same,Antibiotic susceptibility profile,[16],S
same,Antibiotic susceptibility profile,[17],S
C[C@@H](O)[C@H]1C(=O)N2C(C(=O)O)=C(S[C@@H]3CN[C@H](C(=O)N(C)C)C3)[C@H](C)[C@H]12 [Meropenem],MBC,[1]; Acinetobacter baumannii,62.5 µg/mL
same,MIC,[1]; Acinetobacter baumannii,62.5 µg/mL
same,MBC,"[2]; Acinetobacter baumannii, ATCC19",0.98 µg/mL
same,MIC,"[2]; Acinetobacter baumannii, ATCC19, 24 h",0.98 µg/mL
same,MBC,[3]; Acinetobacter baumannii,15.6 µg/mL
same,MIC,[3]; Acinetobacter baumannii,0.98 µg/mL
same,MBC,[4]; Acinetobacter baumannii,125 µg/mL
same,MIC,[4]; Acinetobacter baumannii,125 µg/mL
same,MBC,[5]; Acinetobacter baumannii,125 µg/mL
same,MIC,[5]; Acinetobacter baumannii,125 µg/mL
same,MBC,[6]; Acinetobacter baumannii,125 µg/mL
same,MIC,[6]; Acinetobacter baumannii,125 µg/mL
same,MBC,[7]; Acinetobacter baumannii,250 µg/mL
same,MIC,[7]; Acinetobacter baumannii,125 µg/mL
same,MIC,"[18]; Acinetobacter baumannii, ATCC19, 24 h, read-out: MIC after 20 passages",15.6 µg/mL
same,fold increase in MIC compared to the first passage,[18]; after passage 20,16 fold
same,fold increase of MIC,[18]; day 4,2 fold
same,fold increase of MIC,[18]; day 6,4 fold
same,fold increase of MIC,[18]; day 11,eight
same,Antibiotic susceptibility profile,[10],R
same,Antibiotic susceptibility profile,[11],S
same,Antibiotic susceptibility profile,[12],R
same,Antibiotic susceptibility profile,[13],R
same,Antibiotic susceptibility profile,[14],R
same,Antibiotic susceptibility profile,[15],R
same,Antibiotic susceptibility profile,[16],R
same,Antibiotic susceptibility profile,[17],R
